From patent US20120010173A1 (SEPS PHARMA N.V., priority 2009, published 2012)
≈ marks a conversion by molar mass, not a printed value. Read-outs that look alike come from different tables or passages of the source.

How the values were obtained:
Format in all cases: physicochemical
[1] = Solubility of fosfluconazole derivatives in pharmaceutical solvents (Table 2); details: thermodynamic from solid
Protocol: The solubility determination method used was as follows: a suspension of 6 mg of the tested fosfluconazole derivative in 500 μl of the applicable pharmaceutical solvent was rotatively shaken for 24 hours at 800 rpm at 25° C. The saturated fosfluconazole derivative solution was filtered (0.45 μm) and 150 μl of the filtrate was diluted in dimethylsulfoxide (50 μl DMSO). This solution was assayed, each assay being carried out in three-fold, by measurement with Liquid Chromatography-Mass Spectrometry (LCMS, 1 μl and 10 μl injection). Standards were prepared by dissolving the corresponding fosfluconazole derivative in DMSO (1 mg/ml). To determine the solubility, four aliquots (0.5, 1, 2, 4 μl) of the standard solution were injected using the same LCMS conditions as for the above exemplary samples.

[2] = Chemical stability in pharmaceutical solvents (weight % remaining in solution, LCMS)
Protocol: Table 4 provides the chemical stability data in some pharmaceutical solvents, expressed as the weight percentage (% w/w) of the final fosfluconazole derivative produced and characterized in example 1 that remained in solution after a certain period of time. The test was carried out twice, and the remaining weight % was determined by Liquid Chromatography-Mass Spectrometry (LCMS).
Table 5 provides the chemical stability data in some pharmaceutical solvents at 25° C., expressed as the weight percentage (% w/w) of the final fosfluconazole derivative produced and characterized in example 2 that remained in solution after a certain period of time. The test was carried out twice, and the remaining weight % was determined by Liquid Chromatography-Mass Spectrometry (LCMS).
Table 6 provides the chemical stability data in some pharmaceutical solvents at 25° C., expressed as the weight percentage (% w/w) of the final fosfluconazole derivative produced and characterized in example 3 that remained in solution after a certain period of time. The test was carried out twice, and the remaining weight % was determined by Liquid Chromatography-Mass Spectrometry (LCMS).
Table 7 provides the chemical stability data in some pharmaceutical solvents, expressed as the weight percentage (% w/w) of the final fosfluconazole derivative produced and characterized in example 4 that remained in solution after a certain period of time. The test was carried out twice, and the remaining weight % was determined by Liquid Chromatography-Mass Spectrometry (LCMS).
Table 8 provides the chemical stability data in some pharmaceutical solvents, expressed as the weight percentage (% w/w) of the final fosfluconazole derivative produced and characterized in example 5 that remained in solution after a certain period of time. The test was carried out twice, and the remaining weight % was determined by Liquid Chromatography-Mass Spectrometry (LCMS).
Table 9 provides the chemical stability data in some pharmaceutical solvents, expressed as the weight percentage (% w/w) of the final fosfluconazole derivative produced and characterized in example 6 that remained in solution after a certain period of time. The test was carried out twice, and the remaining weight % was determined by Liquid Chromatography-Mass Spectrometry (LCMS).
Table 10 provides the chemical stability data in some pharmaceutical solvents, expressed as the weight percentage (% w/w) of the final fosfluconazole derivative produced and characterized in example 14 that remained in solution after a certain period of time. The test was carried out twice, and the remaining weight % was determined by Liquid Chromatography-Mass Spectrometry (LCMS).

[3] = Solubility in pharmaceutical solvents (Table 3); details: read-out: solubility
Text: The values within brackets in Table 3 correspond to the calculated fluconazole concentrations taking into account the molecular weights of the relevant fosfluconazole prodrug and fluconazole itself.

[4] = aqueous with cosolvent or surfactant or cyclodextrin, H2O/Cremophor RH 40 (80/20), 25° C.
[5] = aqueous with cosolvent or surfactant or cyclodextrin, H2O/Kleptose HPB (60/40), 25° C.
[6] = aqueous with cosolvent or surfactant or cyclodextrin, H2O/Vitamin E TPGS (90/10), 25° C.
[7] = aqueous with cosolvent or surfactant or cyclodextrin, H2O/polysorbate 80 (80/20), 25° C.
[8] = oil or lipid, Miglyol 812, 25° C.
[9] = organic solvent or mixture, PEG 400, 25° C.
[10] = water (pH 2), aqueous buffer, H2O (pH = 2), 25° C.
[11] = water (pH 7), aqueous buffer, H2O (pH = 7), 25° C.
[12] = water (pH 10), aqueous buffer, H2O (pH = 10), 25° C.
[13] = H2O/Kleptose HPB (60/40), 4 hours
[14] = H2O/Kleptose HPB (60/40), 1 day
[15] = H2O/Kleptose HPB (60/40), 2 days
[16] = H2O/Kleptose HPB (60/40), 7 days
[17] = H2O/Kleptose HPB (60/40), 14 days

## CCCCCCCCCC(=O)OCC(COP(=O)([O-])OC(Cn1cncn1)(Cn1cncn1)c1ccc(F)cc1F)OC(=O)CCCCCCCCC.[Na+] (stereo not drawn) [Example 4, sodium 2,3-bis(decanoyloxy)propyl 2-(2,4-difluorophenyl)-1,3-di(1H-1,2,4-triazol-1-yl)propan-2-yl phosphate]
[1]; [4]
  solubility at 24 h: > 10000 µg/mL
[1]; [5]
  solubility at 24 h: > 10000 µg/mL
[1]; [6]
  solubility at 24 h: > 10000 µg/mL
[1]; [7]
  solubility at 24 h: > 10000 µg/mL
[1]; [8]
  solubility at 24 h: > 10000 µg/mL
[1]; [9]
  solubility at 24 h: 9000 µg/mL
[1]; [10]
  solubility at 24 h: < 1000 µg/mL
[1]; [11]
  solubility at 24 h: 9900 µg/mL
[1]; [12]
  solubility at 24 h: > 10000 µg/mL
[2]; H2O (pH = 7), 4 hours
  weight percentage that remained in solution: 95.2 % w/w
[2]; H2O (pH = 7), 1 day
  weight percentage that remained in solution: 95.3 % w/w
[2]; H2O (pH = 7), 2 days
  weight percentage that remained in solution: 95.5 % w/w
[2]; H2O (pH = 7), 7 days
  weight percentage that remained in solution: 95.6 % w/w
[2]; H2O (pH = 7), 14 days
  weight percentage that remained in solution: 95.4 % w/w
[2]; H2O (pH = 10), 4 hours
  weight percentage that remained in solution: 45.5 % w/w
[2]; H2O (pH = 10), 1 day
  weight percentage that remained in solution: 44.8 % w/w
[2]; H2O (pH = 10), 2 days
  weight percentage that remained in solution: 41.3 % w/w
[2]; H2O (pH = 10), 7 days
  weight percentage that remained in solution: 39.4 % w/w
[2]; H2O (pH = 10), 14 days
  weight percentage that remained in solution: 37.1 % w/w
[2]; [13]
  weight percentage that remained in solution: 95.1 % w/w
[2]; [14]
  weight percentage that remained in solution: 95.3 % w/w
[2]; [15]
  weight percentage that remained in solution: 95.3 % w/w
[2]; [16]
  weight percentage that remained in solution: 94.2 % w/w
[2]; [17]
  weight percentage that remained in solution: 87.7 % w/w
[2]; PEG 400, 4 hours
  weight percentage that remained in solution: 96.8 % w/w
[2]; PEG 400, 1 day
  weight percentage that remained in solution: 95.9 % w/w
[2]; PEG 400, 2 days
  weight percentage that remained in solution: 96.7 % w/w
[2]; PEG 400, 7 days
  weight percentage that remained in solution: 96.6 % w/w
[2]; PEG 400, 14 days
  weight percentage that remained in solution: 97.3 % w/w

## CCOP(=O)(O[C@H]1CC[C@@]2(C)C(=CC[C@H]3[C@@H]4CC[C@H]([C@H](C)CCCC(C)C)[C@@]4(C)CC[C@@H]32)C1)OC(Cn1cncn1)(Cn1cncn1)c1ccc(F)cc1F (stereo partly drawn) [Example 5]
[1]; [4]
  solubility at 24 h: 900 µg/mL (≈ 1.15 mM)
[1]; [5]
  solubility at 24 h: 500 µg/mL (≈ 0.639 mM)
[1]; [6]
  solubility at 24 h: 1400 µg/mL (≈ 1.79 mM)
[1]; [7]
  solubility at 24 h: 4500 µg/mL (≈ 5.75 mM)
[1]; [8]
  solubility at 24 h: 9700 µg/mL (≈ 12.4 mM)
[1]; [9]
  solubility at 24 h: 4100 µg/mL (≈ 5.24 mM)
[1]; [10]
  solubility at 24 h: < 1 µg/mL
[1]; [11]
  solubility at 24 h: < 1 µg/mL
[1]; [12]
  solubility at 24 h: < 1 µg/mL
[3]; Benzylalcohol, organic solvent or mixture
  solubility: ≥ 227000 µg/mL
[3]; Benzylbenzoate, organic solvent or mixture
  solubility: 90000 µg/mL (≈ 115 mM)
[3]; Ethylbenzoate, organic solvent or mixture
  solubility: 133000 µg/mL (≈ 170 mM)
[3]; Miglyol 812, oil or lipid
  solubility: 12000 µg/mL (≈ 15.3 mM)
[3]; N-methylpyrrolidone, organic solvent or mixture
  solubility: ≥ 227000 µg/mL
[3]; Sesame oil (LCT), oil or lipid
  solubility: 10000 µg/mL (≈ 12.8 mM)

## CCCCCCCCCOP(=O)([O-])OC(Cn1cncn1)(Cn1cncn1)c1ccc(F)cc1F.[Na+] [Example 14, sodium 2-(2,4-difluorophenyl)-1,3-di(1H-1,2,4-triazol-1-yl)propan-2-yl nonyl phosphate]
[1]; [4]
  solubility at 24 h: > 10000 µg/mL
[1]; [5]
  solubility at 24 h: > 10000 µg/mL
[1]; [6]
  solubility at 24 h: > 10000 µg/mL
[1]; [7]
  solubility at 24 h: > 10000 µg/mL
[1]; [8]
  solubility at 24 h: 1200 µg/mL
[1]; [9]
  solubility at 24 h: > 10000 µg/mL
[1]; [10]
  solubility at 24 h: > 10000 µg/mL
[1]; [11]
  solubility at 24 h: > 10000 µg/mL
[1]; [12]
  solubility at 24 h: > 10000 µg/mL
[2]; H2O (pH = 2), 4 hours
  weight percentage that remained in solution: 99.0 % w/w
[2]; H2O (pH = 2), 1 day
  weight percentage that remained in solution: 99.1 % w/w
[2]; H2O (pH = 2), 2 days
  weight percentage that remained in solution: 99.2 % w/w
[2]; H2O (pH = 2), 7 days
  weight percentage that remained in solution: 99.2 % w/w
[2]; H2O (pH = 2), 14 days
  weight percentage that remained in solution: 99.6 % w/w
[2]; H2O (pH = 7), 4 hours
  weight percentage that remained in solution: 99.1 % w/w
[2]; H2O (pH = 7), 1 day
  weight percentage that remained in solution: 99.3 % w/w
[2]; H2O (pH = 7), 2 days
  weight percentage that remained in solution: 99.2 % w/w
[2]; H2O (pH = 7), 7 days
  weight percentage that remained in solution: 99.2 % w/w
[2]; H2O (pH = 7), 14 days
  weight percentage that remained in solution: 99.4 % w/w
[2]; H2O (pH = 10), 4 hours
  weight percentage that remained in solution: 99.3 % w/w
[2]; H2O (pH = 10), 1 day
  weight percentage that remained in solution: 99.3 % w/w
[2]; H2O (pH = 10), 2 days
  weight percentage that remained in solution: 99.4 % w/w
[2]; H2O (pH = 10), 7 days
  weight percentage that remained in solution: 99.3 % w/w
[2]; H2O (pH = 10), 14 days
  weight percentage that remained in solution: 99.9 % w/w
[2]; [13]
  weight percentage that remained in solution: 99.5 % w/w
[2]; [14]
  weight percentage that remained in solution: 99.3 % w/w
[2]; [15]
  weight percentage that remained in solution: 99.2 % w/w
[2]; [16]
  weight percentage that remained in solution: 99.3 % w/w
[2]; [17]
  weight percentage that remained in solution: 100.0 % w/w
[2]; PEG 400, 4 hours
  weight percentage that remained in solution: 99.3 % w/w
[2]; PEG 400, 1 day
  weight percentage that remained in solution: 99.3 % w/w
[2]; PEG 400, 2 days
  weight percentage that remained in solution: 99.4 % w/w
[2]; PEG 400, 7 days
  weight percentage that remained in solution: 99.4 % w/w
[2]; PEG 400, 14 days
  weight percentage that remained in solution: 100.0 % w/w
